From US9265774B2, “Methods, compounds and pharmaceutical compositions for treating anxiety and mood disorders” (New York University, priority 2011, dated 2016)

What was measured:
[1] = prazosin: at 0.2 mg/kg in mice; cited from earlier work
[2] = system: Fos expression in the LC; assay: Fos expression in the LC during the RFS model; type: in vivo, mice; settings: dp6FNE 3 mg/kg i.p. 15 min prior to the 5th swim, with prazosin 0.2 mg/kg; swum animals, versus vehicle
Experimental: (§1) In the RFS study, mice were subjected to 4 daily 15 min swims as described above and were injected i.p. with either vehicle or dp6FNE (3 mg/kg) 15 min prior to the 5th swim. In the TST study, animals were injected similarly before a 6 min test. […] The animals were anesthetized and perfused for immuno-histochemistry 70 min after the start of the swim or tail suspension. Brains were processed as described previously for double-label immunofluorescent Fos/tyrosine hydroxylase staining of all sections through the LC and for single-label Fos staining through the full PVH (Stone et al., Brain Res (2009) 1291: 21-31). […] In the tail suspended mice the analogous reductions were 53.5±7.2% (LC) and 36.7±3.1 (PVH). […] These findings thus indicate that a dose of […] dp6FNE that has preferential inhibitory effects on the LC during depression exists.

[3] = system: immobility in tail suspension test; assay: Tail suspension test (TST); type: in vivo, mice
Experimental: In the RFS study, mice were subjected to 4 daily 15 min swims as described above and were injected i.p. with either vehicle or dp6FNE (3 mg/kg) 15 min prior to the 5th swim. In the TST study, animals were injected similarly before a 6 min test. […] The animals were anesthetized and perfused for immuno-histochemistry 70 min after the start of the swim or tail suspension. Brains were processed as described previously for double-label immunofluorescent Fos/tyrosine hydroxylase staining of all sections through the LC and for single-label Fos staining through the full PVH (Stone et al., Brain Res (2009) 1291: 21-31).
To determine if dp6FNE was active in a more traditional test of antidepressant activity, it was given as above 15 min prior to a tail suspension test.
The first test involves an acute stress-induced model of depression (Steru, et al., Psychopharmacology 1985; 85: 367-370) whereas the second, a more prolonged, chronic depression that is more akin to chronic human depression (Stone, et al., Pharmacol Biochem Behav 2008; 91: 190-195).

[4] = system: home cage exploration in handling-stressed mice; assay: Home cage activity after handling and injection stress; type: in vivo; settings: i.p.; dp6FNE (1 mg/kg) in the presence of phentolamine; cirazoline (0.1 mg/kg)
Experimental: FIG. 15 depicts the effect of acute i.p. dp6FNE (1 mg/kg) or cirazoline (0.1 mg/kg), (N=1), on home cage activity in terms of rearing and ambulation, Veh (N=12).
6FNE has a more rapid and/or greater antidepressant effect than either of these agonists because 6FNE is the only known selective α-agonist that has full efficacy at all brain α-adrenoceptors and 6FNE works within minutes (Stone, et al. 2011) whereas cirazoline was given to mice over several months prior to testing in one model (forced swim test) in the above experiment by Doze et al, 2009. […] (Stone, E A, Lin Y, Quartermain, D, Unpublished results)
It is known that peripheral administration of α1-agonists without phentolamine impairs exploratory behavior in the open field (Yang, et al., J Pharmacol exp Ther 1990; 255: 1064-1070).

[5] = system: locomotor behavior in an open field; assay: Open field locomotor behavior after ivt. 6FNE or i.p. dp6FNE versus amphetamine; type: in vivo, mice; settings: 6FNE ivt. or dp6FNE i.p.
Experimental: 6FNE and dp6FNe were tested for their effects on motor activity by measuring locomotor behavior in an open field after either ivt. (6FNE) or i.p. injection (dp6fNE) in mice. These mice were compared to animals that were either non handled or received either a vehicle ivt injection or an i.p. injection of the stimulant, amphetamine (5 mg/kg). The results are shown in FIG. 6 and in (Stone, Lin Y, Sarfraz Y, and Quartermain D, 2011). […] Furthermore, the increase in activity after 6FNE was minor in comparison with the bona fide stimulant, amphetamine which produced a 10 fold increase. The small increase over the vehicle group therefore appears to be the result of a reduction of the stress caused by the handling and restraint for the ivt. injection which is in agreement with the reduced activation of brain stress circuits discussed above. This interpretation was supported by an examination of the time in the center or risky area of the field spent by the various groups. […] A slight reduction in motor behavior at the low doses (0.1-0.3 mg/kg) were, however, observed.

[6] = system: CMS reduction of intake of sweetened milk; assay: Chronic mild stress (CMS)-anhedonia model, consumption of sweetened milk; type: in vivo; settings: acute i.p. dp6FNE
[7] = system: Fos expression in the LC; assay: Fos expression in the LC in the tail suspension test; type: in vivo, mice; settings: dp6FNE 3 mg/kg i.p. before a 6 min tail suspension test, with prazosin 0.2 mg/kg
Experimental: as §1

[8] = system: Fos expression in the PVH; assay: Fos expression in the PVH in the tail suspension test; type: in vivo, mice; settings: dp6FNE 3 mg/kg i.p. before a 6 min tail suspension test, with prazosin 0.2 mg/kg
Experimental: as §1

[9] = system: Fos expression in the PVH; assay: Fos expression in the PVH during the RFS model; type: in vivo, mice; settings: dp6FNE 3 mg/kg i.p. 15 min prior to the 5th swim, with prazosin 0.2 mg/kg; swum animals, versus vehicle
Experimental: as §1

[10] = system: endotoxin-induced inhibition of the female urine sniffing test (FUST); assay: Endotoxin (LPS)-induced anhedonia, female urine sniffing test (FUST); type: in vivo, mice
Experimental: To determine if dp6FNE would also be active in an anhedonia-based model of depression, the compound was tested for its ability to reverse an endotoxin-induced inhibition of the female urine sniffing test (FUST), a non-nutritive hedonic behavior, whose impairment by stress was recently validated as a model of depression in this species (Malkesman et al., Biol Psychiatry (2010) 67: 864-871) A non-nutritive rewarding behavior was used because dp6FNE, like most other acutely administered antidepressants, has initial anorexic effects that inhibit the consumption of sweet solutions (Currie et al., Brain Res (1998) 800: 62-68). […] The repeated forced swim (RFS) model could not be used for this test because it is not a severe enough stress to reliably produce anhedonia in this species (Stone et al., Pharmacol Biochem Behav (2008b) 91: 190-195).
Male mice were trained to sniff estrous urine (verified by vaginal smears) presented on cotton swabs in the home cage over 3 d and were matched on sniffing duration (proximity to the swab in a 3 min test) into control and depression groups. These groups were administered i.p. control solution (H2O) or lipopolysaccharide (LPS), 400 μg/kg, respectively, and were left undisturbed for 24 h, which is necessary for the initial sickness behavior, but not the anhedonia, to subside (Frenois et al., Psychoneuroendocrinology (2007) 32: 516-531).

In the case of `CC(C)(C)C(=O)Oc1cc(F)c(C(O)CN)cc1OC(=O)C(C)(C)C` (centres unmarked) [dp6FNE, dipivalyl-6-fluoronorepinephrine], the “passage of the blood brain barrier” value [1] is listed as “does pass the blood brain barrier”, the “reduction in gene expression (Fos) in the LC” value [2] is listed as 33.6±6.8 and the “immobility in tail suspension test” value ([3]; 3 mg/kg i.p. with prazosin 0.2 mg/kg, 15 min prior to test) is listed as “significant reduction of immobility”. The “antidepressant action in the tail suspension test” value ([3]; i.p. at doses of 1, 3 and 10 mg/kg, given along with phentolamine 5 mg/kg i.p.) was “significant antidepressant action”, the “behavioral inhibition in the home cage following handling and injection stress” value [4] was “rescue of home cage exploration” and the “effect on motor activity in the open field” value [5] was “did not produce any stimulation of motor behavior”. For the same compound, the “time in the center of the field” value [5] was “significant increase in the time in the center of the field”, the “effect on CMS reduction of sweetened milk intake” value [6] was “eliminates the CMS reduction of intake” and the “effect on food intake (hypophagia)” value [6] was “significant hypophagia”. The “reduction in gene expression (Fos) in the LC” value [7] was 53.5±7.2%, the “reduction in gene expression (Fos) in the PVH” value [8] was 36.7±3.1 and the “reduction in gene expression (Fos) in the PVH” value [9] was 13.0±20.1%. For the same compound, the “change of time sniffing, Con vs LPS” value ([10]; dp6FNE (1 mg/kg) i.p. with prazosin 0.2 mg/kg, 15 min before test, 24 h after LPS 400 μg/kg) was “+4.6±1.4%” and the “effect on the FUST in the absence of endotoxin” value ([10]; dp6FNE i.p. with prazosin 0.2 mg/kg, control (H2O) animals) was “did not significantly affect the FUST”.
